Reference: US20010000783A1, “Treatment of interstitial cystitis” (priority 1998, published 2001)

Test system: Normal human bladder epithelial cells
Assay: Inhibition of APF activity by recombinant growth factors, low molecular weight urine fractions, 3H-thymidine incorporation
Format: cell-based
Details: simultaneous exposure to recombinant growth factor and <3 kDa urine fraction, 48 hours; HB-EGF 0-100 ng/ml (effect evident at 10 ng/ml), EGF 0-100 ng/ml, IGF-1 0-300 pg/ml; FIGS. 6A-6C
Experimental: Primary normal adult human bladder epithelial (HBE) cells were cultured by the method described above in Part II. On the third day of incubation, cell medium was replaced by serum free MEM containing the less than 3 kDa fraction (i.e, containing the APF) of urine specimens from IC patients or controls (i.e., that part containing the anti-proliferative factor or APF described in related application Ser. No. 08/944,202), or HPLC-purified APF or its mock control along with varying concentrations of recombinant HB-EGF (0-100 ng/ml), EGF (0-100 ng/ml), or IGF-1 (0-300 pg/ml) [all from R & D Systems, Minneapolis, Minn.] diluted in phosphate buffered saline (1:1:1). Urine was prepared by the method described above in Part II and HPLC purified APF was prepared as described above. Following an additional 48 hours of incubation at 37 degrees C. in a 5% CO2 atmosphere, cell proliferation was assessed by ^3H-thymidine incorporation according to the published methods^38.
Normal human bladder epithelial cells were exposed simultaneously to recombinant human growth factors (HB-EGF, EGF, or IGF1) and low molecular weight fractions from IC patients or control urine specimens. Cell proliferation was determined 48 hours later by 3H-thymidine incorporation (FIGS. 6A-6C). Bar values indicate the mean of 5-8 determinations. Vertical lines indicate the standard error of the mean.

Row | Substance | inhibition of APF antiproliferative activity
1 | IGF1: recombinant insulin-like growth factor 1 from R & D Systems | unable to completely inhibit APF activity
2 | epidermal growth factor (NSDSECPLSHDGYCLHDGVCMYIEALDKYACNCVVGYIGERCQYRDLKWWELR; UniProt P01133 971-1023, looked up) [EGF, recombinant epidermal growth factor from R & D Systems] | unable to completely inhibit APF activity
